From ChEMBL document CHEMBL1201862, “PubChem BioAssay data set” (2004)
Calls of active or inactive are those of the source.

Legend:
[1] = target: T1, Endoribonuclease toxin MazF (Escherichia coli K-12, UniProt P0AE70); assay: activation of MazEF endoribonuclease cleavage – biochemical, fluorescence, single-stranded RNA substrate, uHTS hits, dose response (AID 588481); format: functional
T1 sequence (P0AE70 whole entry): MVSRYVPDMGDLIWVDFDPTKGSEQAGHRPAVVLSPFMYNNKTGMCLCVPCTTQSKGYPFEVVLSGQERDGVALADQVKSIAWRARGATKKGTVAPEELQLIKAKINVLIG

[2] = target: T1, Endoribonuclease toxin MazF; assay: substrate-only fluorescence increase artefacts – biochemical, single-stranded RNase substrate, counter-screen for MazEF activator project, dose response (AID 588502); format: functional
[3] = target: Cytochrome P450 3A4 (Homo sapiens, UniProt P08684);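 note: CYP3A4 tested as one member of a cytochrome P450 panel screen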
[4] = target: Induced myeloid leukemia cell differentiation protein Mcl-1 (Homo sapiens, UniProt Q07820); format: functional
[5] = target: T2, Aminopeptidase N (Plasmodium falciparum FcB1/Columbia, UniProt O96935); assay: malaria alanyl aminopeptidase activity blockers – biochemical, fluorogenic H-Leu-NHMec substrate, 1536-well (AID 1445); design: species or system Plasmodium falciparum 3D7, 3D7
T2 sequence (O96935 whole entry): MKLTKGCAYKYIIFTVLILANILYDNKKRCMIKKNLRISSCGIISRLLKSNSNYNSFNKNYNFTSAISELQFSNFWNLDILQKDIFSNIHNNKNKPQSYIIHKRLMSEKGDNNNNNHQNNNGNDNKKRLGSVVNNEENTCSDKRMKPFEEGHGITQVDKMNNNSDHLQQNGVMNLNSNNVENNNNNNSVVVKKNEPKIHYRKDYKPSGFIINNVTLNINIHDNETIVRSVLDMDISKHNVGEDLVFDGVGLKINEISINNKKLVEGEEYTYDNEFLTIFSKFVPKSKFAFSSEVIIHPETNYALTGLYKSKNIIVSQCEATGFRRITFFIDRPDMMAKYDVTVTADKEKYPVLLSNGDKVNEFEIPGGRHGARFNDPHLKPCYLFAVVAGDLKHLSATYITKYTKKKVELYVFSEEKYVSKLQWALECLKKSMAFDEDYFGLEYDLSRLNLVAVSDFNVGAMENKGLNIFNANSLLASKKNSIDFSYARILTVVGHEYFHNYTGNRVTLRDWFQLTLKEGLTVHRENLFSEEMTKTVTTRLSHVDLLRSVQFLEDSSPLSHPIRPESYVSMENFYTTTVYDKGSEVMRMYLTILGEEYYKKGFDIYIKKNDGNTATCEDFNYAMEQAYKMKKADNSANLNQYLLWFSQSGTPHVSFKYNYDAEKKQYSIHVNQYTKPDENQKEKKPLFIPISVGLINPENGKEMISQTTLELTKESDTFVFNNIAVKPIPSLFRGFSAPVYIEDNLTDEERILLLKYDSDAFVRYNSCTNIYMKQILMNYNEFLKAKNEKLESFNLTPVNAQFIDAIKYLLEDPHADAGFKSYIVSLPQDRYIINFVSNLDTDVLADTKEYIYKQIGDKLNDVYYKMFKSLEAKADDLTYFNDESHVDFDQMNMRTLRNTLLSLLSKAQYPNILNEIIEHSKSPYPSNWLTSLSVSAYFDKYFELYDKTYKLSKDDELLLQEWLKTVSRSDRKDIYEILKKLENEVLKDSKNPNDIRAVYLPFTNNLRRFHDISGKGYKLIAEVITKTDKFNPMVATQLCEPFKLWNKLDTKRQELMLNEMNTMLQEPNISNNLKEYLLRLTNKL

[6] = target: T3, SUMO-activating enzyme (Homo sapiens, UniProt Q9UBT2); assay: blockers of UBC9-mediated SUMO conjugation – biochemical, AlphaScreen, SUMOylation inhibitor project, confirmation (AID 2018); format: functional
[7] = target: T3, SUMO-activating enzyme; assay: blockers of SAE1/SAE2–UBC9 SUMO transfer – biochemical, HTRF, uHTS, primary screen (AID 2006); format: protein-complex assay
[8] = target: T4, Bcl-2-related protein A1 (Mus musculus, UniProt Q07440); format: functional;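 note: confirmatory dose–response counterscreen on Bfl-1, used to check hits from a UBC13 polyubiquitin inhibitor campaign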
T4 sequence (Q07440 whole entry): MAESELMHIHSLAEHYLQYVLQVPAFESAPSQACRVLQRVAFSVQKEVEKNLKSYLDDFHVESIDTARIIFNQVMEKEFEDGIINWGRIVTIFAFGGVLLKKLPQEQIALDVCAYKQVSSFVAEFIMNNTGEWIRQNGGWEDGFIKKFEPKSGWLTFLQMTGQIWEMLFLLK

[9] = target: T5, Ubiquitin-conjugating enzyme E2 N (Homo sapiens, UniProt P61088); format: functional
T5 sequence (P61088 whole entry): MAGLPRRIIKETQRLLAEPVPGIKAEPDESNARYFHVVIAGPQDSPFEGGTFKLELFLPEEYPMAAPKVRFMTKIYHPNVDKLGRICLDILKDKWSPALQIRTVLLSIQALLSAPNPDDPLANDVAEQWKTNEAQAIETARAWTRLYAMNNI

[10] = target: T5, Ubiquitin-conjugating enzyme E2 N; format: functional; remark: listed apart in the source
[11] = target: T6, High affinity choline transporter 1 (Homo sapiens, UniProt Q9GZV3); assay: human choline transporter blockers, potency – cell-based, 5-point CRC, membrane potential dye, dose response (AID 504840); format: functional
T6 sequence (Q9GZV3 whole entry): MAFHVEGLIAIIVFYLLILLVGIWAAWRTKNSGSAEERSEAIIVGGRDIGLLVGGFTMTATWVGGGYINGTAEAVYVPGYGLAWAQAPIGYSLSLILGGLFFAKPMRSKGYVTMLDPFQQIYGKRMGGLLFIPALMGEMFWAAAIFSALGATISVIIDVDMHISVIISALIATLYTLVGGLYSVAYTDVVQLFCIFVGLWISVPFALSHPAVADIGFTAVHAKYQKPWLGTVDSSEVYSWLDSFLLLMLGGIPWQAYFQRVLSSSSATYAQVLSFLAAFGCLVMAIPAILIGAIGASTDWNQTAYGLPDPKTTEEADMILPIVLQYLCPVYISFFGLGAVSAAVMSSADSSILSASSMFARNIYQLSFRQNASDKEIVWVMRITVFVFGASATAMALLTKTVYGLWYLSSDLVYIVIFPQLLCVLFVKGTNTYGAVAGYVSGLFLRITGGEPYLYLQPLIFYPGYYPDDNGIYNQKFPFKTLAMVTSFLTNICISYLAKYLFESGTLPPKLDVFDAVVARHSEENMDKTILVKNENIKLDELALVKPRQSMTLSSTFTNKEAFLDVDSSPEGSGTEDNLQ

[12] = target: T7, Microphthalmia-associated transcription factor (Homo sapiens, UniProt O75030); assay: reducers of TRPM1 reporter luminescence, concentration series – cell-based, SK-MEL-5, cherry-picked, set 3, MITF inhibitor project, dose response (AID 493073); format: functional;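 note: SK-MEL-5 melanoma cells with luciferase driven by the MITF target TRPM1 promoter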
T7 sequence (O75030 whole entry): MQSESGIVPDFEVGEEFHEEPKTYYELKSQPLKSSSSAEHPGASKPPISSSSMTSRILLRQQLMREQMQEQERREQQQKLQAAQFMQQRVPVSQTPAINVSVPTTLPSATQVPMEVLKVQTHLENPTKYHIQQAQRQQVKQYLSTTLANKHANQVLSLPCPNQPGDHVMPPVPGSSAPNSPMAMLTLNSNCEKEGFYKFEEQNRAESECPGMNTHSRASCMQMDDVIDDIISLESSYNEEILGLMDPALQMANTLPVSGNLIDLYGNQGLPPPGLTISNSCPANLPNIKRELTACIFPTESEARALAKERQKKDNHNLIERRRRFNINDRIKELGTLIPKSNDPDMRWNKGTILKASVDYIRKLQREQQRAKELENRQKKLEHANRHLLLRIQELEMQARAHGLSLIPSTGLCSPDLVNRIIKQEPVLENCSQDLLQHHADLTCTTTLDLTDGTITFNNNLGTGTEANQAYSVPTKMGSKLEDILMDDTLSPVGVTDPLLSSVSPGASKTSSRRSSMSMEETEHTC

[13] = target: T8, Calpain-2 catalytic subunit (Sus scrofa, UniProt P43367); assay: m-calpain protease blockers, concentration series – biochemical, fluorogenic peptide substrate, dose response (AID 1420); format: functional
T8 sequence (P43367 whole entry): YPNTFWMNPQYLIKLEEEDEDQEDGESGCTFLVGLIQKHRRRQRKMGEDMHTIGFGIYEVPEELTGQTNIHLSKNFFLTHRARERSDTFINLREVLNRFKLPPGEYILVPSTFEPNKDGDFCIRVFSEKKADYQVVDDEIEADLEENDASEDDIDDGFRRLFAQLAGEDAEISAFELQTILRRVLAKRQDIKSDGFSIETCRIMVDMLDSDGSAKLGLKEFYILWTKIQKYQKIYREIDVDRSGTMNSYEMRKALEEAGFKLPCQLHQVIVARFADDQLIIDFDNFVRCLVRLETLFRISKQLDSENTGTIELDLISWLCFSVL

T3 sequence (Q9UBE0 whole entry): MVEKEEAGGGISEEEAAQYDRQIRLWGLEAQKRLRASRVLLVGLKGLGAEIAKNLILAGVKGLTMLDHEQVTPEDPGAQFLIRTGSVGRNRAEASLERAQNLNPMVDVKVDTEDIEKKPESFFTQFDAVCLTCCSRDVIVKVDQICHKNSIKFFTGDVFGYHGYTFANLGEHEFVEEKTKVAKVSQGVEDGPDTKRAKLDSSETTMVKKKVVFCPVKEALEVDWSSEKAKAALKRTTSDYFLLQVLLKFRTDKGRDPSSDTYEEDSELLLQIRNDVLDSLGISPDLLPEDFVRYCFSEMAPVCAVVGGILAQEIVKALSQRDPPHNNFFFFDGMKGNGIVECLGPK
T3 sequence (Q9UBT2 whole entry): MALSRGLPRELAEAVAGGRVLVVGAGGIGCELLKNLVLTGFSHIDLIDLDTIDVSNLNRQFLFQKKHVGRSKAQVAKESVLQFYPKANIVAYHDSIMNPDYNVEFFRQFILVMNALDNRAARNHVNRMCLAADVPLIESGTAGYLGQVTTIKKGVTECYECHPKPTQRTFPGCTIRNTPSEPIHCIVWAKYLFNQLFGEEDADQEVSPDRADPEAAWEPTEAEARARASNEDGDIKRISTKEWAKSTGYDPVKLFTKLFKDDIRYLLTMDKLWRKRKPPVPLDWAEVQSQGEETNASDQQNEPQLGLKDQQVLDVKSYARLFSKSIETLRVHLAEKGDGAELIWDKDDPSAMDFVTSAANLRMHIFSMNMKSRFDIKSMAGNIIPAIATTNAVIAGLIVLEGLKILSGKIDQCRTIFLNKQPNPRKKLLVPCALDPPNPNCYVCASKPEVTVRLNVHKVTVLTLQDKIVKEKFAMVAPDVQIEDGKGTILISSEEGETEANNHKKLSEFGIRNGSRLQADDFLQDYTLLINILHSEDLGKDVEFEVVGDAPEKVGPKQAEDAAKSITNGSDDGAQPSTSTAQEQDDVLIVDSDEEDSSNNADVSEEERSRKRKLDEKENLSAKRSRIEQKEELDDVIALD
Induced myeloid leukemia cell differentiation protein Mcl-1, sequence (Q07820 whole entry): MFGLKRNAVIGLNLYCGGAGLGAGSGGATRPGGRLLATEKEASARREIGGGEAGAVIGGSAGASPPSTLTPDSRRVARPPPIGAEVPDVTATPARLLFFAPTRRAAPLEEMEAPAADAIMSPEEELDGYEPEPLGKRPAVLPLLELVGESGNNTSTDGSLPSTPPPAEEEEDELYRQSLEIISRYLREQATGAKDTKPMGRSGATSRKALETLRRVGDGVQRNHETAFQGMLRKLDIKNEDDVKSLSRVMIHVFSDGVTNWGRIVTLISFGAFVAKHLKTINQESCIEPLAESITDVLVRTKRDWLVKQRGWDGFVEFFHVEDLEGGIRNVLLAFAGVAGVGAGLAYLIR
Cytochrome P450 3A4, sequence (P08684 whole entry): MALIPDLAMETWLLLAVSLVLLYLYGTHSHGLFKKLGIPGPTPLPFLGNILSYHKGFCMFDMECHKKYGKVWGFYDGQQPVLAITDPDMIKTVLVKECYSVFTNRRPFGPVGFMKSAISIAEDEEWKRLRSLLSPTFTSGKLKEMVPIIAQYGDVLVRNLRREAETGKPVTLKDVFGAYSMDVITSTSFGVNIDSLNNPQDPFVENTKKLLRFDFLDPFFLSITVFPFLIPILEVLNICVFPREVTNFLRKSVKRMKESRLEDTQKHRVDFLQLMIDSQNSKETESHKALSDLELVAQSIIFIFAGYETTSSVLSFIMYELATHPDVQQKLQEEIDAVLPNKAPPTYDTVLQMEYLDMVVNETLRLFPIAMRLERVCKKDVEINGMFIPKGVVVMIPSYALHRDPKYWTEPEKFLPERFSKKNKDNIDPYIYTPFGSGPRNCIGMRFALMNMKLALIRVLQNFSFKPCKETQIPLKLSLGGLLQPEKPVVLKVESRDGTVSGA

## CC(=O)Nc1ccc(C(=O)CSc2cc(C)c3cccc(C)c3n2)cc1
[1]
  EC50: > 99 µM (inactive)
[2]
  EC50: > 99 µM (inactive)

## Cc1ccc(C(=O)N2CCN(c3ccc(C(F)(F)F)cn3)CC2)cc1
[3]
  AC50: inconclusive

## O=C1NC(=S)NC(=O)C1=NNc1ccc(-c2ccccc2)cc1[N+](=O)[O-]
[4]
  IC50: 4.83 µM (active)
[5]
  IC50: 10.5 µM (active)
[6]
  IC50: 4.11 µM (active)
[7]
  IC50: 22.4 µM (active)

## Cc1cccc2c1c(/N=N/C(=N)S)c(O)n2C1OC(CO)C(O)C(O)C1O (stereo not given)
[8]
  IC50: > 20 µM (inactive)
[9]
  IC50: 10.7 µM (active)
[10]
  IC50: 4.56 µM (active)

## CN(C(=O)COC(=O)c1ccc([N+](=O)[O-])cc1N)c1ccccc1
[1]
  EC50: > 99 µM (inactive)
[2]
  EC50: > 99 µM (inactive)

## C/C(=N\OCC(=O)Nc1ccccc1C(=O)O)c1cccs1
[11]
  IC50: 11 µM (active)

## O=C(C[n+]1cccc2ccccc21)c1ccc([N+](=O)[O-])cc1
[12]
  AC50: 6.21 µM (active)

## O=C(C1=NN[C@@H]2C(=O)N(c3cccc(C(F)(F)F)c3)C(=O)[C@H]12)c1ccc2ccccc2n1
[1]
  EC50: 47.9 µM (inactive)
[2]
  EC50: > 99 µM (inactive)

## Cc1noc(NS(=O)(=O)c2ccc(NC(=O)COc3ccc(Cl)cc3Cl)cc2)c1C
[11]
  IC50: 1.08 µM (active)

## O=C(Nc1ccc2oc(=O)ccc2c1)c1ccc(-c2cccc(Cl)c2)o1
[13]
  IC50: 11.6 µM (not active)
[6]
  IC50: 15.8 µM (active)
[7]
  IC50: 6.77 µM (active)
